Source: US12391648B2, “Pyridyloxy thioester derivative and preparation method therefor, herbicidal composition, and application” (Qingdao Kingagroot Chemical Compound Co., Ltd., priority 2018, dated 2025)

Columns and labels:
Test in all cases: Post-emergence test experiment (Table 3, 1000 g/ha)
Format in all cases: in vivo
Settings in all cases: post-emergence spray, after 3 weeks, fresh weight inhibition
Monochoria vaginalis = system: Monochoria vaginalis
How it was run: (§1)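 Activity graded levels 0-5 by fresh-weight inhibition (level 5 above 85%, level 0 below 5%), assessed 3 weeks after treatment. Plants grown in greenhouse pots were sprayed post-emergence at 2-3 leaves using acetone/tween-80 solutions with methyl oleate synergist (1.5 L/ha).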

Digitaria sanguinalis = system: Digitaria sanguinalis
How it was run: as §1

Setaria viridis = system: Setaria viridis
How it was run: as §1

Leptochloa chinensis = system: Leptochloa chinensis
How it was run: as §1

Abutilon theophrasti = system: Abutilon theophrasti
How it was run: as §1

Galium spurium = system: Galium spurium
How it was run: as §1

Structure (SMILES)	Activity level (growth inhibition rate) Monochoria Vaginalis (Monochoria vaginalis)	Activity level (growth inhibition rate) Digitaria sanguinalis (Digitaria sanguinalis)	Activity level (growth inhibition rate) Setaria viridis (Setaria viridis)	Activity level (growth inhibition rate) Leptochloa chinensis (Leptochloa chinensis)	Activity level (growth inhibition rate) Abutilon theophrasti (Abutilon theophrasti)	Activity level (growth inhibition rate) Galium spurium (Galium spurium)
CC(Oc1nc(F)c(Cl)c(N)c1Cl)C(=O)SC(C)C(C)C (stereo not drawn) [Compound 147]	5 (Level 5: the growth inhibition rate is greater than 85%)	5 (Level 5: the growth inhibition rate is greater than 85%)	5 (Level 5: the growth inhibition rate is greater than 85%)	5 (Level 5: the growth inhibition rate is greater than 85%)	5 (Level 5: the growth inhibition rate is greater than 85%)	5 (Level 5: the growth inhibition rate is greater than 85%)
CC(Oc1nc(F)c(Cl)c(N)c1Cl)C(=O)SCC(C)(C)C (stereo not drawn) [Compound 148]	5 (Level 5: the growth inhibition rate is greater than 85%)	5 (Level 5: the growth inhibition rate is greater than 85%)	5 (Level 5: the growth inhibition rate is greater than 85%)	5 (Level 5: the growth inhibition rate is greater than 85%)	5 (Level 5: the growth inhibition rate is greater than 85%)	5 (Level 5: the growth inhibition rate is greater than 85%)
CCC(C)(C)SC(=O)C(C)Oc1nc(F)c(Cl)c(N)c1Cl (stereo not drawn) [Compound 149]	5 (Level 5: the growth inhibition rate is greater than 85%)	5 (Level 5: the growth inhibition rate is greater than 85%)	5 (Level 5: the growth inhibition rate is greater than 85%)	5 (Level 5: the growth inhibition rate is greater than 85%)	5 (Level 5: the growth inhibition rate is greater than 85%)	5 (Level 5: the growth inhibition rate is greater than 85%)
CCC(CC)SC(=O)C(C)Oc1nc(F)c(Cl)c(N)c1Cl (stereo not drawn) [Compound 150]	5 (Level 5: the growth inhibition rate is greater than 85%)	5 (Level 5: the growth inhibition rate is greater than 85%)	5 (Level 5: the growth inhibition rate is greater than 85%)	5 (Level 5: the growth inhibition rate is greater than 85%)	5 (Level 5: the growth inhibition rate is greater than 85%)	5 (Level 5: the growth inhibition rate is greater than 85%)
CCCCC(C)SC(=O)C(C)Oc1nc(F)c(Cl)c(N)c1Cl (stereo not drawn) [Compound 151]	5 (Level 5: the growth inhibition rate is greater than 85%)	5 (Level 5: the growth inhibition rate is greater than 85%)	5 (Level 5: the growth inhibition rate is greater than 85%)	5 (Level 5: the growth inhibition rate is greater than 85%)	5 (Level 5: the growth inhibition rate is greater than 85%)	5 (Level 5: the growth inhibition rate is greater than 85%)
